The values below come from paper PMC9413440, “An Iterative Approach Guides Discovery of the FabI Inhibitor Fabimycin, a Late-Stage Antibiotic Candidate with In Vivo Efficacy against Drug-Resistant Gram-Negative Infections” (ACS Central Science, 2022).

In brackets after ≈: the same amount, converted by molar mass.

Data set [1] deals with E. coli MG1655. Kind of data set: Time-kill kinetics. The format is cell-based, Escherichia coli. Conditions: E. coli MG1655, over 8 h. The protocol: An overnight culture of E. coli MG1655 was diluted in 5 mL of MH broth to ~5.0 * 10^5 CFU/mL and incubated at 37 °C […]
while shaking for 1 hour. […]
the course of 8 hours. At each time point 100 µL of culture was collected and serially diluted in sterile PBS before plating on drug-free agar plates. Colonies were counted after incubation at 37 °C overnight and CFU/mL calculated. […]
(§1) All cells were cultured […]
(§2) at 37 °C under a 5% CO2 environment. Cell lines were authenticated by a commercial vendor and inspected visually in house. Cell lines were not tested for Mycoplasma contamination. The media was prepared by the University of Illinois School of Chemical Sciences Cell Media Facility.
(§3) H. sapiens HFF-1, A549, and HepG2 cells were seeded (3,000-6,000 cells/well) in a 96-well plate (Greiner Bio-One;

In data set [2] the test system is A. baumannii AR-0088. Kind of data set: MIC against infective strain of PK/thigh models. To be noted: Acinetobacter baumannii, AR0088; drug-resistant A. baumannii, infective strain of the PK study (AR-0088). In kind it is cell-based. The method, then:
II. Materials and Methods for Biological Experiments
S. aureus ATCC 29213 and E. coli MG1655 were obtained from the American Type Culture Collection (ATCC). E. coli BW25113 and E. coli JW5503 were obtained from the Keio Collection. AR-bank strains were obtained from the Centers for Disease Control and Prevention and FDA Antibiotic Resistance Isolate Bank.
Antimicrobial susceptibility tests
Susceptibility testing was performed in biological triplicate, unless noted otherwise, using the micro-dilution broth method as outlined by the Clinical and Laboratory Standards Institute. Bacteria were cultured with cation-adjusted Mueller Hinton broth (Sigma Aldrich, catalogue number: 90922). […]
Error bars represent the standard error of the mean of three biological replicates. All compounds evaluated in biological assays were ≥95% pure.

In data set [3] the test system is E. coli MG1655. As to the kind of experiment: Serial passaging. The format is cell-based, Escherichia coli. Conditions: E. coli MG1655, subinhibitory concentration, 21 days. The method, then: Serial passaging procedure was done as reported in literature.5 Briefly, E. coli MG1655 cells were grown in 0.6 mL of MH media containing fabimycin and ciprofloxacin (control) at different concentrations. Cells were added to the respective compounds at 0.25X, 0.5X, 1X, 2X, and 4X to start. At 22-24 hours the cultures were checked for growth. […]
compound at varying concentrations based off of the MIC. This serial passaging was repeated for 21 days. […]
as §1, §2, §3

Data set [4] is classed as in vitro ADME. The method, then:
Selection of resistant mutants
Resistant mutants were generated using the large inoculum method. Briefly, S. aureus 29213, E. coli MG1655, and A. baumannii 19606 (~1 x 1010 CFUs) was plated on 100-mm plates (E. coli and A. baumannii) or 150-mm plates (S. aureus) of MH agar containing either 128, 64, or 32 µg/mL fabimycin (for gram-negatives) or 0.125, 0.062, and 0.031 µg/mL fabimycin (for S. aureus). Plates were incubated at 37 °C for 48 h and counted for the presence of colony forming units.
Glycerol stocks of selected colonies were made, and resistant colonies confirmed by growing on agar plates containing the same concentration of fabimycin that they were generated at.
Sequencing of bacterial fabI
The FabI gene was amplified by PCR. Fabimycin-resistant colonies were picked and diluted in 100 µL sterile, nuclease-free H2O. […] A 10 µL portion of PCR reaction mixture was analyzed by agarose gel electrophoresis to confirm the single 1.4-kilobase pair product. […]
Candidate drugs were incubated with plasma and parent drug levels were monitored at various time points (generally t=0, 10, 20, 30, and 60 minutes) to determine the drug’s half-life in the presence of the chosen system. […] The supernatant was collected after centrifugation, and the sample analyzed by LC-MS where the percentage of compound remaining is plotted vs time to determine the drug’s half-life. […]

With `Cc1c(CN(C)C(=O)/C=C/c2cnc3c(c2)CC[C@H](N)C(=O)N3)oc2ccccc12` [fabimycin], the “rate of killing, time-kill growth curve” value in data set [1] is “not profoundly bactericidal”. The same compound registered an MIC in data set [2] of 2 µg/mL (≈ 4.94 µM). Moreover, the “increase in the MIC after serial passaging” value in data set [3] came to 8 fold. In data set [4], the plasma protein binding result is listed as “lower plasma protein binding relative to Debio-1452”.

As usually defined, the MIC is the least concentration at which growth counts as inhibited.
